{
  "source": "patent US11351142B2",
  "about": "“Composition and method for treating neuronal ceroid lipofuscinosis” (Rush University Medical Center, priority 2012, dated 2022)",
  "key": {"TPP1 [1]": {"tested_on": "TPP1", "assay": "Western blot and densitometric analysis of TPP1 in mouse primary astrocytes", "assay_type": "cell-based", "description": "Astroglia were isolated from mixed glial cultures as described (17,18) according to the procedure of Giulian and Baker (19). Briefly, on day 9, the mixed glial cultures were washed three times with Dulbecco's modified Eagle's medium/F-12 and subjected to shaking at 240 rpm for 2 h at 37° C. on a rotary shaker to remove microglia. After 2 days, the shaking was repeated for 24 h for the removal of oligodendroglia and to ensure the complete removal of all nonastroglial cells. The attached cells were seeded onto new plates for further studies.\nWestern blotting was conducted as described earlier (27,28) with modifications. Briefly, cells were scraped in double-distilled H20 and sodium dodecyl sulfate (SDS), electrophoresed on NuPAGE® Novex® 4-12% Bis-Tris gels (Invitrogen) and proteins transferred onto a nitrocellulose membrane (Bio-Rad) using the Thermo-Pierce Fast Semi-Dry Blotter. The membrane was then washed for 15 min in TBS plus Tween 20 (TBST) and blocked for 1 hr in TBST containing BSA. Next, membranes were incubated overnight at 4° C. under shaking conditions with the following 1° antibodies; TPP1 (1:250, Santa Cruz), β-actin (1:800; Abcam, Cambridge, Mass. The next day, membranes were washed in TBST for 1 hr, incubated in 2° antibodies against 1° antibody hosts (all 1:10,000; Jackson ImmunoResearch) for 1 hr at room temperature, washed for one more hour and visualized under the Odyssey® Infrared Imaging System (Li-COR, Lincoln, Nebr.).\nProtein blots were analyzed using ImageJ (NIH, Bethesda, Md.) and bands were normalized to their respective β-actin loading controls. Data are representative of the average fold change with respect to control for three independent experiments."}, "TPP1 [2]": {"tested_on": "TPP1", "assay": "Western blot for TPP1 in mouse primary neurons", "assay_type": "cell-based", "details": "neurons from cortex, hippocampus, striatum; 25 μM gemfibrozil, 24 hrs", "description": "Fetal (E18-E16) mouse neurons were prepared as previously described (23) with modifications. Whole brains were removed and cortical, hippocampal, striatal and cerebellar fractions were dissected in serum free Neurobasal media. The cells were washed by centrifugation three times at 1200 rpm for 10 min, the pellet dissociated and the cells plated at 10% confluence in 8-well chamber slides pre-treated for >2 hr with Poly-D-Lysine (Sigma, St. Louis, Mo.). After 4 min, the non-adherent cell suspension was aspirated and […] complete Neurobasal media (Invitrogen) supplemented with 2% B27 was added to each well. The cells were incubated for 4 days prior to experimentation. […] The cells were stimulated with gemfibrozil in Neurobasal media supplemented with 2% B27 minus antioxidants (Invitrogen) for 24 hr prior to methanol fixation and immunostaining.\nWestern blotting was conducted as described earlier (27,28) with modifications. Briefly, cells were scraped in double-distilled H20 and sodium dodecyl sulfate (SDS), electrophoresed on NuPAGE® Novex® 4-12% Bis-Tris gels (Invitrogen) and proteins transferred onto a nitrocellulose membrane (Bio-Rad) using the Thermo-Pierce Fast Semi-Dry Blotter. […]\nProtein blots were analyzed using ImageJ (NIH, Bethesda, Md.) and bands were normalized to their respective β-actin loading controls. […]"}, "Cln2 mRNA": {"tested_on": "Cln2 mRNA", "assay": "Cln2 mRNA expression by RT-PCR and real-time PCR in human primary astrocytes", "assay_type": "cell-based", "experimental": "Primary human astroglia were prepared as described (20,21). […] Briefly, 11- to 17-week-old fetal brains obtained from the Human Embryology Laboratory (University of Washington, Seattle, Wash., USA) were dissociated by trituration and trypsinization. On 9th day, these mixed glial cultures were placed on a rotary shaker at 240 rpm at 37° C. for 2 h to remove loosely attached microglia. On 11th day, the flasks were shaken again at 190 rpm at 37° C. for 18 h to remove oligodendroglia. The attached cells remaining were primarily astrocytes. These cells were trypsinized and subcultured in complete media at 37° C. with 5% CO2 in air to yield more viable and healthy cells. […] Semi-quantitative RT-PCR was carried out as described earlier (24) using oligo (dT) 12-18 as primer and moloney murine leukemia virus reverse transcriptase (MMLV-RT, Invitrogen) in a 20 μl reaction mixture. The resulting cDNA was appropriately amplified using Promega Master Mix (Madison, Wis.) and the following primers (Invitrogen) for murine genes: The mRNA quantification was performed using the ABI-Prism7700 sequence detection system (Applied Biosystems, Foster City, Calif.) using iTaq™ Fast Supermix With ROX (Bio-Rad, Hercules, Calif.) and the following 6-FAM/ZEN/IBFQ-labeled primers for murine genes: Cln2 and Gapdh (Integrated DNA Technologies Coralville, Iowa). […]"}, "PPARα/RXRα heterodimer": {"biological_target": "T1, PPARα/RXRα heterodimer (Mus musculus, UniProt P23204+P28700)", "T1 construct": "endogenous in cells; host or cells: mouse primary astrocytes (nuclear extract)", "T1 sequence (P23204 1-468)": "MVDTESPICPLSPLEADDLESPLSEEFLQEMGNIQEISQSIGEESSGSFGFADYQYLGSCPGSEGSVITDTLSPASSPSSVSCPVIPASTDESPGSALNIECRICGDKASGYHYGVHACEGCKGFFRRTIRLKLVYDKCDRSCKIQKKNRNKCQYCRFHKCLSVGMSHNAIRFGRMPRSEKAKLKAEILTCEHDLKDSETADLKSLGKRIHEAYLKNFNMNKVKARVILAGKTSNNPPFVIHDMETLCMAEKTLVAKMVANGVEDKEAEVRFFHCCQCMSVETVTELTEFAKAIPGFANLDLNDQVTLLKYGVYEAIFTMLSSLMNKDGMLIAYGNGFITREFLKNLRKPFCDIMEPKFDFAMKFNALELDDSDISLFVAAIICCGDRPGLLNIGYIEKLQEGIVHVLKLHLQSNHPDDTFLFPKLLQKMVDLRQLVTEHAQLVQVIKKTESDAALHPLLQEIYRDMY", "T1 sequence (P28700 1-467)": "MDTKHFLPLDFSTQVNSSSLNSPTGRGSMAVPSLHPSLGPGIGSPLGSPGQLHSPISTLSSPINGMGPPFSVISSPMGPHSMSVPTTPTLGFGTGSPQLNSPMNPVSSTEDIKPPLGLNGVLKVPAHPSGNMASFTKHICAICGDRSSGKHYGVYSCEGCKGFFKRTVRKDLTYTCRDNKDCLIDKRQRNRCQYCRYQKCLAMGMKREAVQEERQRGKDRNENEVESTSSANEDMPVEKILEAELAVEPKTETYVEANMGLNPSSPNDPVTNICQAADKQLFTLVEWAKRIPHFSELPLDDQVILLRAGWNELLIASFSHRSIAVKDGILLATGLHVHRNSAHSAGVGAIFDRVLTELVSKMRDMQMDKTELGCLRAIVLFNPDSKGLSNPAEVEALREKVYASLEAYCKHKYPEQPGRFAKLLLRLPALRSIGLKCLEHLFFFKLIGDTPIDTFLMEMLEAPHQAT", "assay": "Co-immunoprecipitation of PPARα and RXRα from nuclear extract of mouse astrocytes", "assay_type": "cell-based", "details": "gemfibrozil (10 μM) and RA (0.5 μM) alone and in combination, 6 hrs", "experimental": "After treatment, cells were washed with PBS, scraped into 1.5 mL tubes and centrifuged in 4° C. for 5 min at 500 rpm. The supernatant was aspirated and the pellet was resuspended in a membrane lysis buffer comprised of (4-(2-hydroxyethyl)-1-piperazineethanesulfonic acid) (HEPES, pH 8.0), MgCl2, KCl, dithiothreitol (DTT) and protease/phosphatase inhibitors, vortexed and centrifuged in 4° C. at 15,000 rpm for 3 minutes. Again, the supernatant was aspirated and the pellet was resuspended in a high salt, nuclear envelope lysis buffer comprised of HEPES (pH 8.0), MgCl2, glycerol, NaCl, ethylenediaminetetraacetic acid (EDTA), DTT and protease/phosphatase inhibitors, rotated vigorously in 4° C. for 30 min and centrifuged in 4° C. at 15,000 rpm for 15 minutes. The resultant nuclear pellet was resuspended in IP buffer and a fraction was kept separately as lysate. The remaining nuclear extract was then precleared with 25 ul of protein A-agarose (50%, v/v). The supernatants were immunoprecipitated with 5 ug of anti-RXRα or anti-PPARα or normal IgG (Santa Cruz Biotechnology, Inc.) overnight at 4 C, followed by incubation with protein A-agarose for 4 hrs at 4° C. Protein A-agarose-antigen-antibody complexes were collected by centrifugation at 12,000 rpm for 60 s at 4° C. […]"}, "[3]": {"tested_on": "lysosome-associated membrane protein 2 (LAMP2)", "assay": "Double-labeling for LAMP2 and β-tubulin in human neurons", "assay_type": "cell-based", "details": "25 μM gemfibrozil and 10 μM fenofibrate, 24 hours", "source_text": "DAPI was used to visualize nuclei. Results represent 3 independent experiments."}, "CLN2 (−/−) mouse": {"tested_on": "CLN2 (−/−) mouse", "assay": "Survival (Kaplan-Meier) of CLN2 (−/−) mice", "assay_type": "in vivo", "details": "oral 7.5 mg/kg body weight/day from 4 weeks of age", "source_text": "Treatment was started from 4 weeks of age for all groups. Methyl cellulose was used as vehicle. Top panel: Schematic representation of experiments performed. Bottom panel: Kaplan-Meier plot for percentage survival of treated vs. vehicle or untreated animals."}, "CLN2 (−/−) mice": {"tested_on": "CLN2 (−/−) mice", "assay": "Motor activity monitoring of CLN2 (−/−) mice", "assay_type": "in vivo, mouse", "details": "after 2 weeks and 6 weeks of gemfibrozil treatment", "description": "Each animal was allowed 5 mins of adaptation time followed by monitoring for 5 min. *p-value<0.05. n=15 (untreated), n=20 (treated)"}, "[4]": {"tested_on": "CLN2 knockdown mouse astrocytes", "assay": "Peroxide assay in CLN2 knockdown mouse astrocytes", "assay_type": "cell-based", "details": "astrocytes transfected with CLN2 siRNA 36 hrs, gemfibrozil (25 μM) 6 hrs", "description": "Mouse astrocytes were transfected with CLN2 siRNA (1.0 μg) for 36 hrs and treated with gemfibrozil (25 μM) for 6 hrs. Cells were then harvested and subjected to peroxide assay."}},
  "data": [
    {"smiles": "Cc1ccc(C)c(OCCCC(C)(C)C(=O)O)c1", "note": "[gemfibrozil]", "values": [
      {"measurement": "TPP1 levels (immunoblot, densitometric analysis)", "setting": "TPP1 [1]; PPARα−/− astrocytes, 24 hrs", "result": "no significant increase"},
      {"measurement": "TPP1 levels (Western blot, densitometric analysis)", "setting": "TPP1 [1]; RXRα siRNA transfected astrocytes, gemfibrozil (10 μM), RA (0.5 μM) alone and in combination", "result": "almost no enhancement"},
      {"measurement": "increase in TPP1 protein (Western blot, densitometric quantification)", "setting": "TPP1 [2]", "result": "2-3 fold"},
      {"measurement": "increase in Cln2 mRNA levels, maximum of time course", "setting": "Cln2 mRNA; 25 μM gemfibrozil, at 12 hrs", "result": "~10", "unit": "fold"},
      {"measurement": "increase in Cln2 mRNA levels, maximum of dose response", "setting": "Cln2 mRNA; 25 uM gemfibrozil, different concentrations for 12 hrs", "result": "~15", "unit": "fold"},
      {"measurement": "PPARα in immunoblot after immunoprecipitation with RXR Ab", "setting": "PPARα/RXRα heterodimer", "result": "increased abundance of PPARα"},
      {"measurement": "RXR in immunoblot after immunoprecipitation with PPARα Ab, treated vs control", "setting": "PPARα/RXRα heterodimer", "result": "increased presence of RXR"},
      {"measurement": "LAMP2 (double-labeling)", "setting": "[3]", "result": "upregulation"},
      {"measurement": "life span (percentage survival, Kaplan-Meier)", "setting": "CLN2 (−/−) mouse", "result": "prolongs the life span"},
      {"measurement": "motor activity parameters", "setting": "CLN2 (−/−) mice", "result": "delays the loss of motor activity"},
      {"measurement": "peroxide production", "setting": "[4]", "result": "reduces peroxide production"}
    ]}
  ]
}
